Patent US20240067665A1, “SMALL MOLECULES FOR BORON NEUTRON CAPTURE THERAPY” (Aviko Radiopharmaceuticals, LLC, priority 2022, published 2024)

Experiments:
Settings in all cases: 100 uM
SAS (head & neck cancer) = assay: Cell uptake assay, SAS cells; assay type: cell-based, human
Procedure: (§1) • 1.1.1 15 mL of cell culture medium was placed into a T225 flask. • 1.1.2 The flask was placed in a humidified 37° C., 5% CO2 incubator for 15 minutes to allow medium to equilibrate to the proper pH and temperature. • 1.1.3 The vial was removed from liquid nitrogen and thawed rapidly by placing at 37° C. in a water bath with gentle agitation for 1-2 minutes and then decontaminated by wiping with 70% ethanol before opening in a Class II biological safety cabinet. • 1.1.4 The vial contents were transferred dropwise into 10 mL of cell culture medium in a sterile 15 mL conical tube. • 1.1.5 The cells were centrifuged at 1,300 rpm for 5 minutes. • 1.1.6 The supernatant was aspirated and re-suspended the cells and transferred the cells into T225 flask containing cell culture medium.
(§2) • 1.2.1 Culture medium were renewed every 2-3 days. • 1.2.2 Keep the flask in a humidified 37° C., 5% CO2 incubator
(§3) • Cells were harvested and diluted in culture medium to the designated concentration. Then the cells were cultured in T25 flasks, one T25 flask for one sample. 2.2 Formulation of test compounds • 2.2.1 L-Boronophenylalanine (L-BPA, 4-boron-L-phenylalanine, Purity: 95%, Chemical formula: C9H12BNO4, MW: 209.01, CAS: 76410-58-7) and fructose were dissolved in PBS at a molar ratio of 1:5, and then a 1.27 M ratio of 1 N NaOH is added. The mixture was stirred until L-BPA is completely dissolved, and the pH value was titrated to 7.2-7.4 with 1 N HC1. • 2.2.2 For test compounds other than BPA, stock solutions were prepared of each compound in DMSO or fructose formulation at a concentration of 20 mM (such that final % DMSO in the cellular assay medium=0.5%) 2.3 Compound treatment • 2.3.1 The cells were seeded overnight (12-18 hours) to allow the cells to adhere well. • 2.3.2 The stock solution of each compound was added to each T25 flask such that the final concentration for each compound is 100 uM (0.1 mM). • 2.3.3 The flasks were placed in a 37° C., 5% CO2 incubator for 1 hour, 4 hours and 24 hours. • 2.3.4 After treatment for 1 hour, 4 hour, and 24 hours, the cells were collected by using 0.25% Trypsin with 0.53 mM EDTA. • 2.3.5 Centrifuged at 1,300 rpm for 5 min to collect cell pellets.

B16F10 = assay: Cell uptake assay, B16F10 cells; assay type: cell-based, mouse
Procedure: as §1, §2, §3

NIH-3T3 = assay: Cell uptake assay, NIH-3T3 cells; assay type: cell-based, mouse
Procedure: as §1, §2, §3

U87-MG (glioblastoma) = assay: Cell uptake assay, U87-MG cells; assay type: cell-based, human
Procedure: as §1, §2, §3

Structure (SMILES)	Cell uptake, Mean, SAS (SAS (head & neck cancer); 1 hour)	Cell uptake, Mean, SAS (SAS (head & neck cancer); 4 hours)	Cell uptake, Mean, SAS (SAS (head & neck cancer); 24 hours)	Cell uptake, Mean, B16F10 (B16F10; 1 hour)	Cell uptake, Mean, B16F10 (B16F10; 4 hours)	Cell uptake, Mean, NIH-3T3 (NIH-3T3; 1 hour)	Cell uptake, Mean, NIH-3T3 (NIH-3T3; 4 hours)	Cell uptake, Mean, U87-MG (U87-MG (glioblastoma); 1 hour)	Cell uptake, Mean, U87-MG (U87-MG (glioblastoma); 4 hours)	Cell uptake, Mean, U87-MG (U87-MG (glioblastoma); 24 hours)	Cell uptake, Mean, B16F10 (B16F10; 24 hours)	Cell uptake, Mean, NIH-3T3 (NIH-3T3; 24 hours)
NC(Cc1ccc(CCB(O)O)cc1F)C(=O)O (single isomer, unassigned) [compound 8, (S*)-2-amino-3-(4-(2-boronoethyl)-2-fluorophenyl)propanoic acid]	44.6 ng/10^6 cell	66.7 ng/10^6 cell	359 ng/10^6 cell	26.9 ng/10^6 cell	31.4 ng/10^6 cell	14.7 ng/10^6 cell	26.4 ng/10^6 cell	16.7 ng/10^6 cell	31.1 ng/10^6 cell	16.3 ng/10^6 cell		
NC(Cc1ccc(CCB(O)O)cc1F)C(=O)O (single isomer, unassigned) [compound 9, (R*)-2-amino-3-(4-(2-boronoethyl)-2-fluorophenyl)propanoic acid]	129 ng/10^6 cell	103 ng/10^6 cell	211 ng/10^6 cell		66.7 ng/10^6 cell	34.4 ng/10^6 cell	43.0 ng/10^6 cell	90.1 ng/10^6 cell		74.6 ng/10^6 cell	119 ng/10^6 cell	37.2 ng/10^6 cell
N[C@@H](Cc1cccc(OCB(O)O)c1)C(=O)O [compound 1, (S)-2-amino-3-(3-(boronomethoxy)phenyl)propanoic acid]		755 ng/10^6 cell	828 ng/10^6 cell	112 ng/10^6 cell	232 ng/10^6 cell	127 ng/10^6 cell	194 ng/10^6 cell	227 ng/10^6 cell	233 ng/10^6 cell	336 ng/10^6 cell	517 ng/10^6 cell	133 ng/10^6 cell
N[C@@H](Cc1ccc(OCB(O)O)cc1F)C(=O)O [compound 2, (S)-2-amino-3-(4-(boronomethoxy)-2-fluorophenyl)propanoic acid]	1125 ng/10^6 cell	1590 ng/10^6 cell	1595 ng/10^6 cell	151 ng/10^6 cell	333 ng/10^6 cell			123 ng/10^6 cell		626 ng/10^6 cell	881 ng/10^6 cell	205 ng/10^6 cell
N[C@@H](Cc1ccc(OCCB(O)O)cc1)C(=O)O [compound 3, (2S)-2-amino-3-{4-[2-(dihydroxyboranyl)ethoxy]phenyl}propanoic acid]	534 ng/10^6 cell	499 ng/10^6 cell		145 ng/10^6 cell	222 ng/10^6 cell	132 ng/10^6 cell	138 ng/10^6 cell	197 ng/10^6 cell	211 ng/10^6 cell	183 ng/10^6 cell	117 ng/10^6 cell	
NC(Cc1ccc(OCB(O)O)cc1)C(=O)O (centres unmarked) [compound 4, 2-amino-3-{4-[(dihydroxyboranyl)methoxy]phenyl}propanoic acid]	445 ng/10^6 cell	495 ng/10^6 cell	997 ng/10^6 cell	46.1 ng/10^6 cell	95.6 ng/10^6 cell	27.1 ng/10^6 cell	58.6 ng/10^6 cell	42.8 ng/10^6 cell	113 ng/10^6 cell	191 ng/10^6 cell	101 ng/10^6 cell	66.6 ng/10^6 cell
